Data taken from patent US20230053688A1, “METHODS TO ALTER LATENCY IN EBV+ MALIGNANCIES” (Cornell University, priority 2020, published 2023).
Counter-ions that a name gives are not always drawn. Like-named read-outs stand apart in the source and are kept apart here.

Test system: LMP1 expression in Kem I cells
Assay: microbe, parasite or virus in culture
Type: cell-based, EBV
Conditions: for Average LMP1 Fold Increase / Replicate 1-LMP1 Fold Increase / Replicate 2-LMP1 Fold Increase: Kem I cells, 48 hours; for fold induction at 2.5 µM: human gammaherpesvirus 4, 48 h
[1] = 2.5 uM, average of replicates 1 and 2
[2] = 2.5 uM, fold change in LMP1 transcript vs vehicle
[3] = read-out: Average LMP1 Fold Increase, Kem I cells, 2.5 uM, 48 hours, average of replicates 1 and 2
[4] = read-out: Replicate 1-LMP1 Fold Increase, Kem I cells, 2.5 uM, 48 hours, fold change in LMP1 transcript vs vehicle
[5] = read-out: Replicate 2-LMP1 Fold Increase, Kem I cells, 2.5 uM, 48 hours, fold change in LMP1 transcript vs vehicle
[6] = dose 2.5 uM, LMP1 transcript by in-well qRT-PCR, average of the two replicates
[7] = dose 2.5 uM, LMP1 transcript by in-well qRT-PCR, screen replicate 1
[8] = dose 2.5 uM, LMP1 transcript by in-well qRT-PCR, screen replicate 2
[9] = read-out: Average LMP1 Fold Increase, Kem I cells, dose 2.5 uM, 48 hours, LMP1 transcript by in-well qRT-PCR, average of the two replicates
[10] = read-out: Replicate 1-LMP1 Fold Increase, Kem I cells, dose 2.5 uM, 48 hours, LMP1 transcript by in-well qRT-PCR, screen replicate 1
[11] = read-out: Replicate 2-LMP1 Fold Increase, Kem I cells, dose 2.5 uM, 48 hours, LMP1 transcript by in-well qRT-PCR, screen replicate 2

| SMILES | Average LMP1 Fold Increase [1] | Replicate 1-LMP1 Fold Increase [2] | Replicate 2-LMP1 Fold Increase [2] | fold induction at 2.5 µM [3] | fold induction at 2.5 µM [4] | fold induction at 2.5 µM [5] | also measured |
| --- | --- | --- | --- | --- | --- | --- | --- |
| CC1(C)CCC(c2ccc(Cl)cc2)=C(CN2CCN(c3ccc(C(=O)NS(=O)(=O)c4ccc(N[C@H](CCN5CCOCC5)CSc5ccccc5)c(S(=O)(=O)C(F)(F)F)c4)cc3)CC2)C1 [ABT-263 (Navitoclax)] | 0.27 | 0.21 | 0.33 |  |  |  |  |
| CC1(C)CCC(CN2CCN(c3ccc(C(=O)NS(=O)(=O)c4ccc(NCC5CCOCC5)c([N+](=O)[O-])c4)c(Oc4cnc5[nH]ccc5c4)c3)CC2)=C(c2ccc(Cl)cc2)C1 [ABT-199 (GDC-0199)] | 0.75 | 0.51 | 0.98 |  |  |  |  |
| COc1cc(N2CCC(N)CC2)ccc1Nc1ncc(Cl)c(-c2c[nH]c3ccccc23)n1 [AZD3463] | 0.26 | 0.28 | 0.24 |  |  |  |  |
| O=c1cc(N2CCOCC2)oc2c1ccc1ccccc12 [NU7026] | 0.77 | 0.47 | 1.07 |  |  |  |  |
| CC(C)(F)C[C@H](N[C@@H](c1ccc(-c2ccc(S(C)(=O)=O)cc2)cc1)C(F)(F)F)C(=O)NC1(C#N)CC1 [Odanacatib (MK-0822)] | 0.56 | 0.58 | 0.54 |  |  |  |  |
| COc1ccc(C2CNC(=O)C2)cc1OC1CCCC1 (stereo not drawn) [Rolipram] |  |  |  | 0.94 | 1.13 | 0.75 |  |
| CCOC(=O)C1=C(COCCN)NC(C)=C(C(=O)OC)C1c1ccccc1Cl (stereo not drawn) [Amlodipine] |  |  |  | 2.06 | 0.51 | 3.61 |  |
| CCCCCCCCCCCC1=C(O)C(=O)C=C(O)C1=O [Embelin] |  |  |  | 0.59 | 0.43 | 0.74 |  |
| c1cc(-c2cnn3cc(-c4ccc(N5CCNCC5)cc4)cnc23)c2cccnc2c1 [LDN-212854] | 0.62 | 0.96 | 0.27 |  |  |  |  |
| CS(=O)(=O)c1cccc(CNc2nc(Nc3ccc4c(c3)CCC(=O)N4)ncc2C(F)(F)F)c1 [PF-573228] | 0.66 | 0.87 | 0.45 |  |  |  |  |
| CN1CCC[C@@H]1CCO[C@](C)(c1ccccc1)c1ccc(Cl)cc1 [Clemastine Fumarate] |  |  |  | 0.67 | 0.64 | 0.69 |  |
| COc1nc(C)cnc1NS(=O)(=O)c1cccnc1-c1ccc(-c2nnco2)cc1 [Zibotentan (ZD4054)] |  |  |  |  |  |  | Average LMP1 Fold Increase [6]: 0.77 fold; Replicate 1-LMP1 Fold Increase [7]: 0.57 fold; Replicate 2-LMP1 Fold Increase [8]: 0.97 fold |
| O=C1C(=O)N(Cc2ccc(Cl)c(Cl)c2)c2ccccc21 [Apoptosis Activator 2] | 0.82 | 0.87 | 0.78 |  |  |  |  |
| CC(=O)c1cc([N+](=O)[O-])c(Sc2ccc(F)cc2F)s1 [P22077] | 0.25 | 0.20 | 0.29 |  |  |  |  |
| Nc1ccc(C(=O)O)c(O)c1 [Sodium 4-Aminosalicylate] |  |  |  | 0.36 | 0.19 | 0.53 |  |
| Cc1ccc(S(=O)(=O)c2ccc([N+](=O)[O-])o2)cc1 [NSC697923] | 0.09 | 0.10 | 0.09 |  |  |  |  |
| CS(=O)(=O)N1CCN(Cc2cc3nc(-c4cccc5[nH]ncc45)nc(N4CCOCC4)c3s2)CC1 [GDC-0941] | 0.92 | 0.75 | 1.09 |  |  |  |  |
| C[C@]1(c2nc3c(C(N)=O)cccc3[nH]2)CCCN1 [Veliparib (ABT-888)] |  |  |  |  |  |  | Average LMP1 Fold Increase [6]: 1.08 fold; Replicate 1-LMP1 Fold Increase [7]: 0.71 fold; Replicate 2-LMP1 Fold Increase [8]: 1.45 fold |
| Oc1cc(O)cc(/C=C/c2ccc(O)c(O)c2)c1 [Piceatannol] |  |  |  | 0.75 | 0.83 | 0.66 |  |
| CCCCc1nc(Cl)c(CO)n1Cc1ccc(-c2ccccc2-c2nnn[n-]2)cc1.[K+] [Losartan Potassium (DuP 753)] | 0.35 | 0.21 | 0.48 |  |  |  |  |
| C[C@](O)(COc1ccc(C#N)cc1)C(=O)Nc1ccc(C#N)c(C(F)(F)F)c1 [MK-2866 (GTx-024)] | 0.64 | 0.72 | 0.56 |  |  |  |  |
| C[C@H](N[C@@H](CCc1ccccc1)C(=O)O)C(=O)N1CCC[C@H]1C(=O)O.O.O [Enalaprilat Dihydrate] | 0.51 | 0.51 | 0.52 |  |  |  |  |

| SMILES | Average LMP1 Fold Increase [1] | Replicate 1-LMP1 Fold Increase [2] | Replicate 2-LMP1 Fold Increase [2] | fold induction at 2.5 µM [3] | fold induction at 2.5 µM [4] | fold induction at 2.5 µM [5] | also measured |
| --- | --- | --- | --- | --- | --- | --- | --- |
| COc1cccc2c1C(=O)c1c(O)c3c(c(O)c1C2=O)C[C@@](O)(C(C)=O)C[C@@H]3O[C@H]1C[C@H](N)[C@H](O)[C@H](C)O1 [Daunorubicin HCl] |  |  |  | 242 | 221 | 262 |  |
| O=C(Nc1cc(C(F)(F)F)cc(C(F)(F)F)c1)c1cc(Cl)ccc1O [IMD 0354] |  |  |  | 0.62 | 0.74 | 0.5 |  |
| NCC(=O)Nc1ccc(-n2nc(C(F)(F)F)cc2-c2ccc3c(ccc4ccccc43)c2)cc1 [OSU-03012 (AR-12)] | 0.95 | 0.79 | 1.12 |  |  |  |  |
| Cc1cc(C(C)(C)C)c(O)c(C)c1CC1=NCCN1 [Oxymetazoline HCl] |  |  |  | 0.66 | 0.6 | 0.72 |  |
| O=S(=O)(c1ccccc1)N(CC(F)(F)F)c1ccc(C(O)(C(F)(F)F)C(F)(F)F)cc1 [T0901317] |  |  |  |  |  |  | fold induction at 2.5 µM [9]: 0.44; fold induction at 2.5 µM [10]: 0.41; fold induction at 2.5 µM [11]: 0.47 |
| NC(=O)C1CCCc2c1[nH]c1ccc(Cl)cc21 (stereo not drawn) [EX 527 (Selisistat)] | 0.81 | 0.24 | 1.38 |  |  |  |  |
| CNC(=O)[C@H](Cc1ccccc1)NC(=O)[C@H](CC(C)C)[C@H](CSc1cccs1)C(=O)NO [Batimastat (BB-94)] | 0.46 | 0.38 | 0.55 |  |  |  |  |
| C#CCC(Cc1cnc2nc(N)nc(N)c2n1)c1ccc(C(=O)N[C@@H](CCC(=O)O)C(=O)O)cc1 (stereo partly drawn) [Pralatrexate] |  |  |  | 3.49 | 3.95 | 3.02 |  |
| Cc1ccc(S(=O)(=O)Cc2nc(-c3ccc(C(=O)NCc4cccnc4)cc3)oc2C)cc1 [STF-118804] | 0.10 | 0.08 | 0.11 |  |  |  |  |
| CC(NC(=O)c1ccccc1/N=C/c1c(O)ccc2ccccc12)c1ccccc1 (stereo not drawn) [Sirtinol] |  |  |  | 0.6 | 0.28 | 0.92 |  |
| CC(C)CC(=O)Nc1[nH]nc2c1CN(C(=O)C1CCN(C)CC1)C2(C)C [PHA-793887] |  |  |  | 2.82 | 0.58 | 5.05 |  |
| COc1ccccc1OCCNCC(O)COc1cccc2[nH]c3ccccc3c12 (stereo not drawn) [Carvedilol] |  |  |  | 0.88 | 0.89 | 0.87 |  |
| CCCc1nc2c(C)cc(-c3nc4ccccc4n3C)cc2n1Cc1ccc(-c2ccccc2C(=O)O)cc1 [Telmisartan] |  |  |  |  |  |  | fold induction at 2.5 µM [9]: 0.37; fold induction at 2.5 µM [10]: 0.29; fold induction at 2.5 µM [11]: 0.45 |
| Cc1cc(OCCCS(C)(=O)=O)cc(C)c1-c1cccc(COc2ccc3c(c2)OC[C@H]3CC(=O)O)c1 [TAK-875] |  |  |  |  |  |  | fold induction at 2.5 µM [9]: 0.57; fold induction at 2.5 µM [10]: 0.55; fold induction at 2.5 µM [11]: 0.59 |
| C=CCn1c(=O)c2cnc(Nc3ccc(N4CCN(C)CC4)cc3)nc2n1-c1cccc(C(C)(C)O)n1 [MK-1775] |  |  |  | 5.22 | 6.01 | 4.43 |  |
| CC(=O)Nc1nc2c(Oc3cc(-c4ccc(C(F)(F)F)cc4)ncn3)cccc2s1 [AMG-517] |  |  |  | 0.52 | 0.56 | 0.48 |  |
| NC(=O)c1cccc(-c2cccc(OC(=O)NC3CCCCC3)c2)c1 [URB597] |  |  |  |  |  |  | fold induction at 2.5 µM [9]: 0.54; fold induction at 2.5 µM [10]: 0.52; fold induction at 2.5 µM [11]: 0.55 |
| COc1ccc2cccc(CCNC(C)=O)c2c1 [Agomelatine] |  |  |  | 0.43 | 0.34 | 0.52 |  |
| C1=N/C2=N/c3ccc(OCCN4CCCC4)c(c3)COC/C=C/COCc3cccc(c3)C(=C1)N2 [Pacritinib (SB1518)] | 0.37 | 0.24 | 0.49 |  |  |  |  |
| O=C(Nc1cccc(C(F)(F)F)c1)Nc1cc(S(=O)(=O)NC2CC2)ccc1-c1ccsc1 [AGI-6780] |  |  |  | 1.51 | 0.42 | 2.6 |  |
| Cc1nc(C(=O)NCC(=O)O)c(O)c2ccc(Oc3ccccc3)cc12 [FG-4592] |  |  |  | 0.22 | 0.19 | 0.24 |  |
